Legend:
[1] = system: rats with the hind limb inflammed; test: Analgesic activity, rats with inflamed hind limb (absence of squeal on flexion of inflamed ankle joint); assay type: in vivo, rat; conditions: for ED50: Rattus norvegicus, read-out: oral ED50 (median analgesic dose); for ED50 / side effects at the median analgesic dose: oral; for side effects at the median analgesic dose: at ED50 dosage (AMR-94 160 mg./kg.; AMR-93 325 mg./kg.)
Procedure: the end-point for analgesic testing in rats with the hind limb inflammed is based on the absence of a squeal in response to flexion of the inflammed ankle joint (Method described by S. Margolin, Proceedings of an International Symposium on Non-Steroidal Anti-Inflammatory Drugs, Excerpta Medica International Congress, Series No. 82, 1964).
With AMR-93, the median effective dose was 325 ± 45 mg./kg.

[2] = system: edema (swelling), experimental inflammation in the hind limb of rats; test: Anti-inflammatory activity, reduction of edema of experimentally inflamed hind limb; assay type: in vivo, albino rats; conditions: for ED50: Rattus norvegicus, read-out: oral median effective dose (ED50), anti-inflammatory; for anti-inflammatory effect: oral dosage of 600 mg./kg.
Procedure: anti-inflammatory activity was assayed by the method described by Margolin (ibid.) utilizing albino rats. The anti-inflammatory bio-assay basis is the ability to reduce the edema (swelling) when an experimental inflammation is induced in the hind limb of the rats.

[3] = system: experimentally-induced fever in albino rabbits; test: Anti-pyretic activity, experimentally-induced fever in rabbits; assay type: in vivo; conditions: for anti-pyretic activity: induced fever
Procedure: anti-pyretic activity testing is based upon the ability of the drug to suppress the experimentally-induced fever in albino rabbits (F. M. Berger, et al. J. Pharmacology and Experimental Therapeutics, Vol. 127, No. 1, 1959 based upon the original presentations of G. Brownlee Quart. J. Pharm; Vol. 10, Pg. 609, 1937 and Quart. J. Pharm., Vol. 12, Pg. 45, 1939). The drugs under test are administered intraperitoneally and the response is compared to that of saline controls. The average change in temperature over a period of three hours following the administration of aminopyrine (100 mg./kg. i.p.), AMR-69 (100 mg./kg. i.p.) and the saline (isotonic) controls were as follows:
The effective anti-pyretic activity of AMR-69 in rabbits has been noted previously.

serum uric acid = test: Reduction in serum uric acid levels, rats; assay type: in vivo, albino male and female rats; conditions: albino male and female rats, similar tests
Procedure: normal adult albino male and female rats were given repeated graded doses of AMR-69 and the effect upon serum uric acid levels was determined. There were 10 males and 10 females in each group. The control group received the placebo and the drug was administered orally by admixture to the food. The serum uric acid determination was one of a series performed utilizing the Autotechnicon technique (Lofland et al., 1965 Technicon Symposium) using the Standard SMA-12 procedure (based upon procedure of Bittner et al., AM. J. Clin. Path. 40:423, 1963).
The lowering in serum uric acid levels shown by AMR-69 in tests on rats and on dogs has been noted.

[4] = system: mucous membranes of the nasopharynx and lungs; test: Protection of mucous membranes of the nasopharynx and lungs, comparison with related pyridones; assay type: in vivo; conditions: for protection of mucous membranes of the nasopharynx and lungs: comparison with related pyridones; for side effects / deleterious effects on the respiratory system: mucous membrane protection tests
[5] = General comparison of side effects and therapeutic activity in the several tests; conditions: in vivo
[6] = system: experimentally-induced fever in albino rabbits; test: Anti-pyretic activity, experimentally-induced fever in rabbits; assay type: in vivo; conditions: animals without experimentally induced fever as well
Acute toxicity in mice = assay type: in vivo; conditions: mouse, in vivo, ip; fasted albino mice, intraperitoneal; read-out: Intraperitoneally LD50
Procedure: in fasted albino mice (Flanders) the LD50 for AMR-69 and aminopyrine was determined by standard procedures with the following results: […]

SMILES | analgesic effect at a dosage low enough to obviate Central Nervous System depression [1] | ED50 [1] [mg/kg] | side effects at the median analgesic dose [1] | ED50 ([2]; oral) [mg/kg] | side-effects at anti-inflammatory ED50 ([2]; oral) | convulsions observed, test animals ([3]; rabbits) | anti-pyretic activity ([3]; rabbits) | change in serum uric acid level (serum uric acid) | protection of mucous membranes of the nasopharynx and lungs [4] | side effects / deleterious effects on the respiratory system [4] | deleterious side effects in the several tests [5] | effect on normal body temperature [6] | analgesic activity relative to AMR-69 ([1]; oral route) | anti-inflammatory effect [2] | therapeutic activity in the several tests [5] | average change in temperature over a period of three hours ([3]; 100 mg./kg. i.p., fevered albino rabbits, saline controls +0.9 ±0.17°C) [°C] | reduction in fever as compared to the saline control ([3]; 100 mg./kg. i.p., aminopyrine t = 6.6, p < 0.01, AMR-69 t = 6.3, p < 0.01) | LD50 (Acute toxicity in mice) [mg/kg]
CCc1ccc(=O)n(-c2ccccc2)c1 [AMR-94, 5-ethyl-1-phenyl-2-(1H)-pyridone] | could not be demonstrated | 160 ± 32 | marked sedation, Central Nervous System depression, loss of respiratory efficiency, ataxia, and uncoordinated gait | 225 ± 52 | accompanied by undesired side-effects | two of the four | slight reduction in induced fever which was not considered statistically significant | did not show a significant change in serum uric acid level | did not show a protective effect | undesirable side effects were evident | accompanied by deleterious side effects | marked lowering of normal body temperature |  |  |  |  |  | 
Cc1cccn(-c2ccccc2)c1=O [AMR-77, 3-methyl-1-phenyl-2-(1H)-pyridone] |  | 515 ± 45 |  |  |  |  | No significant anti-pyretic activity was observed |  | no evidence of protective action | No acute deleterious effects on the respiratory system were observed | not observed |  | approximately one-third to one-fourth the activity of AMR-69 | No anti-inflammatory effect was observed | neither was significant therapeutic activity demonstrated |  |  | 
O=c1ccccn1-c1ccccc1 [AMR-93, 1-phenyl-2-(1H)-pyridone] |  | 325 ± 45 | acute bleeding from the nose and an autopsy revealed multiple hemorrhages and edema of the lungs |  |  |  | No significant anti-pyretic activity was observed | did not show a significant change in serum uric acid level | did not show a protective effect | undesirable side effects were evident | accompanied by deleterious side effects |  |  | No anti-inflammatory effect was observed |  |  |  | 
Cc1c(N(C)C)c(=O)n(-c2ccccc2)n1C [Aminopyrine, aminopyrine, reference compound] |  | 150 ± 26 |  | 185 ± 31 |  |  |  |  |  |  |  |  |  |  |  | -0.6 ±0.16 | highly significant | 175 ± 9
